Legend:
[1] = biological target: isolated recombinant JAK2 kinase domain (Homo sapiens (Human), UniProt O60674); assay: JAK2 enzyme assay (Caliper LabChip, Ki); assay type: biochemical; conditions: isolated recombinant JAK2 kinase domain, 0.2 nM enzyme, ATP 25 μM
[2] = biological target: isolated recombinant JAK1 kinase domain (Homo sapiens (Human), UniProt P23458); assay: JAK1 enzyme assay (Caliper LabChip, Ki); assay type: biochemical; conditions: isolated recombinant JAK1 kinase domain, 1.5 nM enzyme, ATP 25 μM
Chain of isolated recombinant JAK1 kinase domain (P23458 875-1153): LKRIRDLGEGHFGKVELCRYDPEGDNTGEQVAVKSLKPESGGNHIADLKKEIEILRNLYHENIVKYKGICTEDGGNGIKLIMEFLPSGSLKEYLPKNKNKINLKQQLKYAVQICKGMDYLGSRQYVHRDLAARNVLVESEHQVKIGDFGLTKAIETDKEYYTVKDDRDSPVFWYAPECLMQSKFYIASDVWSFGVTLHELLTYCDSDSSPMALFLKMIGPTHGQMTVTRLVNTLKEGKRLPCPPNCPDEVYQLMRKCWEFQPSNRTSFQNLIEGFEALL

Chain of isolated recombinant JAK2 kinase domain (O60674 849-1124): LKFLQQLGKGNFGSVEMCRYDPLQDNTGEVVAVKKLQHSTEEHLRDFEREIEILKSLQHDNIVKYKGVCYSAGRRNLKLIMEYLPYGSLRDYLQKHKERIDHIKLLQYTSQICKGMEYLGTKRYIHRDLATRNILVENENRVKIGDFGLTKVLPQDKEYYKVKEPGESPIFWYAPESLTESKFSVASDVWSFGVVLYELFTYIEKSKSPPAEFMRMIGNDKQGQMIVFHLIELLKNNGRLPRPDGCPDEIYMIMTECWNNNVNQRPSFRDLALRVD

| SMILES | Ki [1] [nM] | Ki [2] [nM] |
| --- | --- | --- |
| CSCCN1CCN(C(=O)Cn2cc(Nc3nc4c(N5CC6CCC(C5)N6C(=O)C5CC(C(F)(F)F)C5)cccn4n3)cn2)CC1 (stereo not drawn) [Example 197, 1-[4-(2-methylsulfanylethyl)-piperazin-1-yl]-2-[4-[[8-[8-[3-(trifluoromethyl)-cyclobutanecarbonyl]-3,8-diazabicyclo[3.2.1]octan-3-yl]-[1,2,4]triazolo[1,5-a]pyridin-2-yl]amino]pyrazol-1-yl]ethanone] | 0.3 | 0.3 |
| CSCCN1CCN(C(=O)Cn2cc(Nc3nc4c(N5CC6CCC(C5)N6C(=O)C5CC(C(F)(F)F)C5)cccn4n3)cn2)CC1 (stereo not drawn) [Example 198, 1-[4-(2-methylsulfanylethyl)-piperazin-1-yl]-2-[4-[[8-[8-[3-(trifluoromethyl)-cyclobutanecarbonyl]-3,8-diazabicyclo[3.2.1]octan-3-yl]-[1,2,4]triazolo[1,5-a]pyridin-2-yl]amino]pyrazol-1-yl]ethanone] | 2.1 | 0.8 |
| CN1CCN(C(=O)Cn2cc(Nc3nc4c(N5CC6CCC(C5)N6C(=O)c5cccc(C#N)c5)cccn4n3)cn2)CC1 [Example 199, 3-[3-[2-[[1-[2-(4-methylpiperazin-1-yl)-2-oxo-ethyl]pyrazol-4-yl]amino]-[1,2,4]triazolo[1,5-a]pyridin-8-yl]-3,8-diazabicyclo[3.2.1]octane-8-carbonyl]benzonitrile] | 2.1 | 1.3 |

Source: patent US10189836B2, “Therapeutic compounds, compositions and methods of use thereof” (Genentech, Inc., priority 2015, dated 2019)
